Assay results taken from patent US20130109693A1, “DERIVATIVES OF PYRIDO [3,2-D] PYRIMIDINE, METHODS FOR PREPARATION THEREOF AND THERAPEUTIC USES THEREOF” (UNIVERSITE D'ORLEANS, priority 2010, published 2013).

SMILES	melting point
COc1cccc(-c2nc(-c3ccccc3)c3ncc(-c4ccco4)cc3n2)c1 [Compound 12, 7-(2-Furyl)-2-(3-methoxyphenyl)-4-phenyl-pyrido[3,2-d]pyrimidine]	131 to 132 °C
COc1cccc(-c2nc(-c3ccccc3)c3ncc(-c4cccnc4)cc3n2)c1 [Compound 13, 2-(3-Methoxyphenyl)-4-phenyl-7-(3-pyridyl)-pyrido[3,2-d]pyrimidine]	134 to 135 °C
N#Cc1cccc(-c2cnc3cnc(-c4ccc(O)cc4)nc3c2)c1 [Compound 29, 2-(4-Hydroxyphenyl)-7-(3-cyanophenyl)-pyrido[3,2-d]pyrimidine]	> 268 °C
COc1cccc(-c2nc(-c3ccccc3)c3ncc(-c4csc5ccccc45)cc3n2)c1 [Compound 14, 7-(3-Benzothienyl)-2-(3-methoxyphenyl)-4-phenyl-pyrido[3,2-d]pyrimidine]	112 to 113 °C
Oc1ccccc1-c1ncc2ncc(Cl)cc2n1 [Compound 19, 7-Chloro-2-(2-hydroxyphenyl)-pyrido[3,2-d]pyrimidine]	211 to 212 °C
COc1ccccc1-c1nc(-c2ccccc2)c2ncc(Cl)cc2n1 [Compound 7, 7-Chloro-2-(2-methoxyphenyl)-4-phenyl-pyrido[3,2-d]pyrimidine]	116 to 117 °C
COc1cccc(-c2nc(-c3ccccc3)c3ncc(-c4ccc(C(C)=O)cc4)cc3n2)c1 [Compound 9, 7-(4-Acetylphenyl)-2-(3-methoxyphenyl)-4-phenyl-pyrido[3,2-d]pyrimidine]	133 to 134 °C
Oc1ccc(-c2ncc3ncc(-c4ccoc4)cc3n2)cc1 [Compound 36, 2-(4-Hydroxyphenyl)-7-(3-furyl)-pyrido[3,2-d]pyrimidine]	> 268 °C
O=Cc1ccc(-c2cnc3cnc(-c4ccc(O)cc4)nc3c2)cc1 [Compound 42, 2-(4-Hydroxyphenyl)-7-(4-formylphenyl)-pyrido[3,2-d]pyrimidine]	> 268 °C
Oc1ccc(-c2ncc3ncc(-c4ccc(S)cc4)cc3n2)cc1 [Compound 27, 2-(4-Hydroxyphenyl)-7-(4-mercaptophenyl)-pyrido[3,2-d]pyrimidine]	222 to 223 °C
COc1cccc(-c2nc(-c3ccccc3)c3ncc(-c4cccs4)cc3n2)c1 [Compound 15, 2-(3-Methoxyphenyl)-4-phenyl-7-(2-thienyl)-pyrido[3,2-d]pyrimidine]	140 to 141 °C
COc1cccc(-c2nc(-c3ccccc3)c3ncc(Cl)cc3n2)c1 [Compound 6, 7-Chloro-2-(3-methoxyphenyl)-4-phenyl-pyrido[3,2-d]pyrimidine]	112 to 113 °C
Clc1cnc2c(-c3ccccc3)nc(-c3ccccc3)nc2c1 [Compound 4, 7-Chloro-2,4-diphenyl-pyrido[3,2-d]pyrimidine]	120 to 121 °C
N#Cc1ccc(-c2cnc3cnc(-c4ccc(O)cc4)nc3c2)cc1 [Compound 28, 2-(4-Hydroxyphenyl)-7-(4-cyanophenyl)-pyrido[3,2-d]pyrimidine]	313 to 314 °C
Oc1ccc(-c2cnc3cnc(-c4ccccc4O)nc3c2)cc1 [Compound 31, 2-(2-Hydroxyphenyl)-7-(4-hydroxyphenyl)-pyrido[3,2-d]pyrimidine]	> 268 °C
COc1ccc(-c2cnc3c(-c4ccccc4)nc(-c4cccc(OC)c4)nc3c2)cc1 [Compound 8, 2-(3-Methoxyphenyl)-7-(4-methoxyphenyl)-4-phenyl-pyrido[3,2-d]-pyrimidine]	147 to 148 °C
Oc1ccc(-c2cnc3cnc(-c4cccc(O)c4)nc3c2)cc1 [Compound 30, 2-(3-Hydroxyphenyl)-7-(4-hydroxyphenyl)-pyrido[3,2-d]pyrimidine]	> 268 °C
COc1ccc(-c2nc(-c3ccccc3)c3ncc(Cl)cc3n2)cc1 [Compound 5, 7-Chloro-2-(4-methoxyphenyl)-4-phenyl-pyrido[3,2-d]pyrimidine]	193 to 194 °C
Oc1cccc(-c2ncc3ncc(Cl)cc3n2)c1 [Compound 18, 7-Chloro-2-(3-hydroxyphenyl)-pyrido[3,2-d]pyrimidine]	252 to 253 °C

More lines, now with the values ahead:

melting point	SMILES
> 268 °C	COCOc1ccc(-c2ncc3ccc(-c4csc(CN5CCOCC5)c4)nc3n2)cc1 [Compound 76, 2-(4-Methoxymethoxy-phenyl)-7-(5-morpholin-4-ylmethyl-thiophen-3-yl)-pyrido[2,3-d]pyrimidine]
232 °C	OCc1cccc(-c2cnc3cnc(-c4ccc(O)cc4)nc3c2)c1 [Compound 45, 2-(4-Hydroxyphenyl)-7-(3-hydroxymethylphenyl)-pyrido[3,2-d]pyrimidine]
> 268 °C	O=C1CNCCN1c1cnc2cnc(-c3ccc(O)cc3)nc2c1 [Compound 70, 1-[2-(4-Hydroxy-phenyl)-pyrido[3,2-d]pyrimidin-7-yl]-piperazin-2-one]
106 to 107 °C	OCCNc1nc(NCc2ccccc2)c2ncc(Cl)cc2n1 [Compound 82, 4-Benzylamino-7-chloro-2-(2-hydroxyethylamino)-pyrido[3,2-d]pyrimidine]
> 268 °C	O=C1CCCN1c1cnc2cnc(-c3ccc(O)cc3)nc2c1 [Compound 72, 1-[2-(4-Hydroxy-phenyl)-pyrido[3,2-d]pyrimidin-7-yl]-pyrrolidin-2-one]
232 °C	COCOc1ccc(-c2ncc3ncc(NC(=O)c4cccnc4)cc3n2)cc1 [Compound 65, N-[2-(4-Methoxymethoxy-phenyl)-pyrido[3,2-d]pyrimidin-7-yl]-nicotinamide]
> 268 °C	Oc1ccc(-c2ncc3ncc(Nc4ccncc4)cc3n2)cc1 [Compound 55, 2-(4-Hydroxyphenyl)-7-(4-pyridinylamino)-pyrido[3,2-d]pyrimidine]
> 268 °C	Oc1ccc(-c2ncc3ncc(Nc4ccccn4)cc3n2)cc1 [Compound 57, 2-(4-Hydroxyphenyl)-7-(2-pyridinylamino)-pyrido[3,2-d]pyrimidine]
268 to 270 °C	O=C1CCCCN1c1cnc2cnc(-c3ccc(O)cc3)nc2c1 [Compound 69, 1-[2-(4-Hydroxy-phenyl)-pyrido[3,2-d]pyrimidin-7-yl]-piperidin-2-one]
202 to 204 °C	COCOc1ccc(-c2ncc3ncc(N4CCCCC4=O)cc3n2)cc1 [Compound 66, 1-[2-(4-Methoxymethoxy-phenyl)-pyrido[3,2-d]pyrimidin-7-yl]-piperidin-2-one]
200 to 202 °C	COCOc1ccc(-c2ncc3ncc(N4CCNCC4=O)cc3n2)cc1 [Compound 67, 1-[2-(4-Methoxymethoxy-phenyl)-pyrido[3,2-d]pyrimidin-7-yl]-piperazin-2-one]
266 °C	O=Cc1cccc(-c2cnc3cnc(-c4ccc(O)cc4)nc3c2)c1 [Compound 44, 2-(4-Hydroxyphenyl)-7-(3-formylphenyl)-pyrido[3,2-d]pyrimidine]
> 268 °C	Oc1ccc(-c2ncc3ccc(-c4csc(CN5CCOCC5)c4)nc3n2)cc1 [Compound 79, 4-[7-(5-Morpholin-4-ylmethyl-thiophen-3-yl)-pyrido[2,3-d]pyrimidin-2-yl]-phenol]
226 to 228 °C	O=C(Nc1cnc2cnc(-c3ccc(O)cc3)nc2c1)c1cccnc1 [Compound 68, N-[2-(4-Hydroxy-phenyl)-pyrido[3,2-d]pyrimidin-7-yl]nicotinamide]
168 to 170 °C	Oc1ccc(Nc2cnc3cnc(-c4ccc(O)cc4)nc3c2)cc1 [Compound 58, 2-(4-Hydroxyphenyl)-7-(4-hydroxyphenylamino)-pyrido[3,2-d]pyrimidine]
230 to 232 °C	O=C(Nc1cnc2cnc(-c3ccc(O)cc3)nc2c1)c1ccncc1 [Compound 71, N-[2-(4-Hydroxy-phenyl)-pyrido[3,2-d]pyrimidin-7-yl]isonicotinamide]
202 to 203 °C	OCCNc1nc(NCc2ccccc2)c2ncc(Nc3ncncn3)cc2n1 [Compound 88, 4-Benzylamino-2-(2-hydroxyethylamino)-7-(1,3,5-triazinylamino)-pyrido[3,2-d]pyrimidine]
> 268 °C	COCOc1ccc(-c2ncc3ccc(-c4csc(CN5CCCCC5)c4)nc3n2)cc1 [Compound 75, 2-(4-Methoxymethoxy-phenyl)-7-(5-piperidin-1-ylmethyl-thiophen-3-yl)-pyrido[2,3-d]pyrimidine]
207 to 208 °C	COc1cc(O)ccc1-c1cnc2cnc(-c3ccc(O)cc3)nc2c1 [Compound 43, 2-(4-hydroxyphenyl)-7-(2-methoxy-4-hydroxyphenyl)-pyrido[3,2-d]pyrimidine]
> 268 °C	COCOc1ccc(-c2ncc3ncc(Cl)cc3n2)cc1 [Compound 64, 7-Chloro-2-(4-methoxymethoxy-phenyl)-pyrido[3,2-d]pyrimidine]
> 268 °C	COCOc1ccc(-c2ncc3ccc(-c4csc(CN5CCN(C)CC5)c4)nc3n2)cc1 [Compound 77, 2-(4-Methoxymethoxy-phenyl)-7-[5-(4-methyl-piperazin-1-ylmethyl)-thiophen-3-yl]-pyrido[2,3-d]pyrimidine]
> 268 °C	Oc1ccc(-c2ncc3ccc(-c4csc(CN5CCCCC5)c4)nc3n2)cc1 [Compound 78, 4-[7-(5-Piperidin-1-ylmethyl-thiophen-3-yl)-pyrido[2,3-d]pyrimidin-2-yl]-phenol]
